Laboratory results from patent US9879303B2, “Chromogenic glucuronidase substrates and uses” (Glycosynth Limited, priority 2013, dated 2018).
Counter-ions that a name gives are not always drawn.

Legend:
E. faecalis NCTC 775 = experiment: screen of strains in broth medium containing FAC; format: cell-based; parameters: key: Red, Green, Black or Purple mean strong colour; Red, Green, Black or Purple mean strong colour; Red, Green, Black or Purple mean strong colour; Red, Green, Black or Purple mean strong colour; +/− means less colour than strong; Tr means a trace of colour, less than +/−; — means no colour; conditions: 37° C. 18 hours
[1] = tested on: E. coli expressing both β-D-glucuronidase and β-D-galactosidase; experiment: broth media in the presence of ONPG; format: cell-based; conditions: ONPG 1.5 g/L, broth with FAC
Protocol: The two indoxyl glucuronides used produce insoluble endpoints following hydrolysis, as does the CPS ID 3 medium. It was therefore necessary to test these two substrates on agar plates. In contrast, catechol-β-D-glucuronide (1) and DHN-β-D-glucuronide (2b) give much more soluble endpoints best suited to liquid media and were therefore tested in a broth medium. Each broth was prepared using proteose peptone (Oxoid, Basingstoke, UK) (2 g), NaCl (1 g) and FAC (100 mg) in DI water (180 mL). This mixture was autoclaved and cooled to room temperature before being dispensed into bijoux (100×1.8 mL). Catechol β-D-glucuronide CHA salt (1) or DHN-β-D-glucuronide CHA salt (2b) (60 mg) were each dissolved in water (20 mL) and filtered to sterilize before being aseptically dispensed into successive bijoux (0.2 mL) containing the broth solution. […]
Because many E. coli produce both β-D-glucuronidase and β-D-galactosidase, catechol-β-D-glucuronide (1) and DHN-β-D-glucuronide (2b) were tested as in the broth media described above but in the presence of o-nitrophenyl-β-D-galactoside (ONPG) (at a concentration of 1.5 g/L). […] With either substrate, the colour of these solutions of mixed chromogens could be very readily distinguished with the unaided eye from the yellow colour of those strains, such as E. cloacae, that produced β-D-galactosidase only. […]

In the case of `O=C(O)C1OC(Oc2ccccc2O)C(O)C(O)C1O` [Compound 1, Catechol β-D-Glucuronide CHA Salt], the colour (E. faecalis NCTC 775) is reported as “—” and the “colour of solutions in the presence of ONPG” value [1] is reported as “greyish-black solutions”.
For `O=C(O)C1OC(Oc2cc3ccccc3cc2O)C(O)C(O)C1O` [Compound 2b, DHN-β-D-Glucuronide CHA Salt], the colour (E. faecalis NCTC 775) was “—” and the “colour of solutions in the presence of ONPG” value [1] was “purple-brown solutions”.
